{"source": "paper PMC11864979", "about": "“First-in-class ultralong-target-residence-time p38α inhibitors as a mitosis-targeted therapy for colorectal cancer” (Nature Cancer, 2025)", "assay_in_all_cases": "selectivity profiling in a panel of 340 wild-type kinases (Reaction Biology Europe)", "type_in_all_cases": "binding", "key": {"340 wild-type kinases [1]": {"molecular_target": "T1, 340 wild-type kinases (Homo sapiens, UniProt O00444)", "T1 construct": "purchased Reaction Biology Europe", "T1 sequence (O00444 1-970)": "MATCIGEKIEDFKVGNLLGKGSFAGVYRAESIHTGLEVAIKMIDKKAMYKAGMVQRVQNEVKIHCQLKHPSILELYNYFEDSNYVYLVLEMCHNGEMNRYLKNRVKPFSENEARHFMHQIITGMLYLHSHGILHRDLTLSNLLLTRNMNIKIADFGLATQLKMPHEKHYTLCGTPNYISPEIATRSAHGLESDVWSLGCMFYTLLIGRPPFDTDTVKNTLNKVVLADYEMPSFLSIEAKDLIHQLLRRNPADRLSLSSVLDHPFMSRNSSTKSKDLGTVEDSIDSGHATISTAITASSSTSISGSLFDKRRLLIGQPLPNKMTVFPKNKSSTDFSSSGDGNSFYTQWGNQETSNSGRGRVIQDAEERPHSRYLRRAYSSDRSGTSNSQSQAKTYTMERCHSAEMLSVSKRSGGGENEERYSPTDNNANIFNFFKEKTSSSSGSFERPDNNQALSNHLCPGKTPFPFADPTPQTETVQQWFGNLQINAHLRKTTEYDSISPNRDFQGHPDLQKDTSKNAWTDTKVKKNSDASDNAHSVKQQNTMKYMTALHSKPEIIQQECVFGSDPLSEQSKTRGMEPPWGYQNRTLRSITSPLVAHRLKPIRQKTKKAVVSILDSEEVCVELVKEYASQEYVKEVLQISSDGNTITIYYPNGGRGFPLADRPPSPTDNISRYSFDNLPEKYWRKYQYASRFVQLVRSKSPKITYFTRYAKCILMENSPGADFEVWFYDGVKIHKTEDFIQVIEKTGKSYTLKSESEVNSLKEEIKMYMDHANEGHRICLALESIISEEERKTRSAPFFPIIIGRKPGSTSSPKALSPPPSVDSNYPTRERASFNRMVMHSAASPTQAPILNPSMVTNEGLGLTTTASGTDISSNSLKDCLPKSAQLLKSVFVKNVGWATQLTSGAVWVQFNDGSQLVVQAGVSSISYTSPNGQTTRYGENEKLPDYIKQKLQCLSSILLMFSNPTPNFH"}, "340 wild-type kinases [2]": {"molecular_target": "T2, 340 wild-type kinases (Homo sapiens, UniProt P30530)", "T2 construct": "purchased Reaction Biology Europe", "T2 sequence (P30530 26-894)": "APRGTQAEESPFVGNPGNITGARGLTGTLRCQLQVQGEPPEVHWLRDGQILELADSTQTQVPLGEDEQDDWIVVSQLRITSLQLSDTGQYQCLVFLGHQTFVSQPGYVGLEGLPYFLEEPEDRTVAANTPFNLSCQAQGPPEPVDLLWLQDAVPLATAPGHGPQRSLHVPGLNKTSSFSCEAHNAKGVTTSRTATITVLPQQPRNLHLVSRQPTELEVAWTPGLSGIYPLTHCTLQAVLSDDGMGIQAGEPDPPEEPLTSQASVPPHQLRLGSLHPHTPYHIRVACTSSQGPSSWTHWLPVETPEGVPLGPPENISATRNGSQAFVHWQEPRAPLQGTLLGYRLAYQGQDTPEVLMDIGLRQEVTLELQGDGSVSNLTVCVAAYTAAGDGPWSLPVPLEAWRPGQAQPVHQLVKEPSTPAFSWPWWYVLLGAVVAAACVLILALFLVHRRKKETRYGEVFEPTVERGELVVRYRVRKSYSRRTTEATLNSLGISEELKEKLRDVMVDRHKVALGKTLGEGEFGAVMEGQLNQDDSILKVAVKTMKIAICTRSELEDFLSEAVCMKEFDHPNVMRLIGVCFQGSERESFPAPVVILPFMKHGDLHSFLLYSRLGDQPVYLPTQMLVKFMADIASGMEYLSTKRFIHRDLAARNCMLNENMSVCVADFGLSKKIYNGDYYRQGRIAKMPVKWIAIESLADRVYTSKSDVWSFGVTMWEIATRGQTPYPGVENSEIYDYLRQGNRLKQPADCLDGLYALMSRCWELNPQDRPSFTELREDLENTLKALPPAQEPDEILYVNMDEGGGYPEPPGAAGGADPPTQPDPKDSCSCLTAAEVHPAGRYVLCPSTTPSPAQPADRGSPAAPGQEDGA"}, "340 wild-type kinases [3]": {"molecular_target": "T3, 340 wild-type kinases (Homo sapiens, UniProt P48730)", "T3 construct": "purchased Reaction Biology Europe", "T3 sequence (P48730 whole entry)": "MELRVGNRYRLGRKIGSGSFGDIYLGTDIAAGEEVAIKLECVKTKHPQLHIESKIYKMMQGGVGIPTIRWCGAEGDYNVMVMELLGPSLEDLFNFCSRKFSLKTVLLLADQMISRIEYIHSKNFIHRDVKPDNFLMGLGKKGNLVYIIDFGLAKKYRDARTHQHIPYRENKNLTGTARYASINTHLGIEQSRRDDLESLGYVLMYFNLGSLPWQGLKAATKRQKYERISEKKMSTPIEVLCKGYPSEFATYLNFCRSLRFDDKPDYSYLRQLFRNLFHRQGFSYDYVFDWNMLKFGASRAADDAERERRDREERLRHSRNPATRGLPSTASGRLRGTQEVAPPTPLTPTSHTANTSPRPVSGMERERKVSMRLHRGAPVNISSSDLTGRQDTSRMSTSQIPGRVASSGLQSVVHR"}, "340 wild-type kinases [4]": {"molecular_target": "T4, 340 wild-type kinases (Homo sapiens, UniProt O43353)", "T4 construct": "purchased Reaction Biology Europe", "T4 sequence (O43353 whole entry)": "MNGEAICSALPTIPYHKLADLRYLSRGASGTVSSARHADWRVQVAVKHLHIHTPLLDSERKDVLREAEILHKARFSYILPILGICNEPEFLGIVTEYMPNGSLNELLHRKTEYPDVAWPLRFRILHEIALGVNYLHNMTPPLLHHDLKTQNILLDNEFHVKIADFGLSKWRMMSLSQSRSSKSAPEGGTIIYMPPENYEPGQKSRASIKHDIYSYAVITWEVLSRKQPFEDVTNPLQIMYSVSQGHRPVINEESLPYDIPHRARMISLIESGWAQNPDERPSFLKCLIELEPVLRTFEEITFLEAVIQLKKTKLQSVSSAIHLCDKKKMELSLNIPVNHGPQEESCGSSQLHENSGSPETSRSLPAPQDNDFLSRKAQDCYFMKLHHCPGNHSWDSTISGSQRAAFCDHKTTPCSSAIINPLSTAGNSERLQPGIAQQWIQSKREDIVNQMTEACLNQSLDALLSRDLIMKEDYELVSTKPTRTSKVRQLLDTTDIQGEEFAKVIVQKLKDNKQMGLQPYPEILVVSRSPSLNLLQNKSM"}, "340 wild-type kinases [5]": {"molecular_target": "T5, 340 wild-type kinases (Homo sapiens, UniProt P78527)", "T5 construct": "purchased Reaction Biology Europe", "T5 sequence (P78527 whole entry)": "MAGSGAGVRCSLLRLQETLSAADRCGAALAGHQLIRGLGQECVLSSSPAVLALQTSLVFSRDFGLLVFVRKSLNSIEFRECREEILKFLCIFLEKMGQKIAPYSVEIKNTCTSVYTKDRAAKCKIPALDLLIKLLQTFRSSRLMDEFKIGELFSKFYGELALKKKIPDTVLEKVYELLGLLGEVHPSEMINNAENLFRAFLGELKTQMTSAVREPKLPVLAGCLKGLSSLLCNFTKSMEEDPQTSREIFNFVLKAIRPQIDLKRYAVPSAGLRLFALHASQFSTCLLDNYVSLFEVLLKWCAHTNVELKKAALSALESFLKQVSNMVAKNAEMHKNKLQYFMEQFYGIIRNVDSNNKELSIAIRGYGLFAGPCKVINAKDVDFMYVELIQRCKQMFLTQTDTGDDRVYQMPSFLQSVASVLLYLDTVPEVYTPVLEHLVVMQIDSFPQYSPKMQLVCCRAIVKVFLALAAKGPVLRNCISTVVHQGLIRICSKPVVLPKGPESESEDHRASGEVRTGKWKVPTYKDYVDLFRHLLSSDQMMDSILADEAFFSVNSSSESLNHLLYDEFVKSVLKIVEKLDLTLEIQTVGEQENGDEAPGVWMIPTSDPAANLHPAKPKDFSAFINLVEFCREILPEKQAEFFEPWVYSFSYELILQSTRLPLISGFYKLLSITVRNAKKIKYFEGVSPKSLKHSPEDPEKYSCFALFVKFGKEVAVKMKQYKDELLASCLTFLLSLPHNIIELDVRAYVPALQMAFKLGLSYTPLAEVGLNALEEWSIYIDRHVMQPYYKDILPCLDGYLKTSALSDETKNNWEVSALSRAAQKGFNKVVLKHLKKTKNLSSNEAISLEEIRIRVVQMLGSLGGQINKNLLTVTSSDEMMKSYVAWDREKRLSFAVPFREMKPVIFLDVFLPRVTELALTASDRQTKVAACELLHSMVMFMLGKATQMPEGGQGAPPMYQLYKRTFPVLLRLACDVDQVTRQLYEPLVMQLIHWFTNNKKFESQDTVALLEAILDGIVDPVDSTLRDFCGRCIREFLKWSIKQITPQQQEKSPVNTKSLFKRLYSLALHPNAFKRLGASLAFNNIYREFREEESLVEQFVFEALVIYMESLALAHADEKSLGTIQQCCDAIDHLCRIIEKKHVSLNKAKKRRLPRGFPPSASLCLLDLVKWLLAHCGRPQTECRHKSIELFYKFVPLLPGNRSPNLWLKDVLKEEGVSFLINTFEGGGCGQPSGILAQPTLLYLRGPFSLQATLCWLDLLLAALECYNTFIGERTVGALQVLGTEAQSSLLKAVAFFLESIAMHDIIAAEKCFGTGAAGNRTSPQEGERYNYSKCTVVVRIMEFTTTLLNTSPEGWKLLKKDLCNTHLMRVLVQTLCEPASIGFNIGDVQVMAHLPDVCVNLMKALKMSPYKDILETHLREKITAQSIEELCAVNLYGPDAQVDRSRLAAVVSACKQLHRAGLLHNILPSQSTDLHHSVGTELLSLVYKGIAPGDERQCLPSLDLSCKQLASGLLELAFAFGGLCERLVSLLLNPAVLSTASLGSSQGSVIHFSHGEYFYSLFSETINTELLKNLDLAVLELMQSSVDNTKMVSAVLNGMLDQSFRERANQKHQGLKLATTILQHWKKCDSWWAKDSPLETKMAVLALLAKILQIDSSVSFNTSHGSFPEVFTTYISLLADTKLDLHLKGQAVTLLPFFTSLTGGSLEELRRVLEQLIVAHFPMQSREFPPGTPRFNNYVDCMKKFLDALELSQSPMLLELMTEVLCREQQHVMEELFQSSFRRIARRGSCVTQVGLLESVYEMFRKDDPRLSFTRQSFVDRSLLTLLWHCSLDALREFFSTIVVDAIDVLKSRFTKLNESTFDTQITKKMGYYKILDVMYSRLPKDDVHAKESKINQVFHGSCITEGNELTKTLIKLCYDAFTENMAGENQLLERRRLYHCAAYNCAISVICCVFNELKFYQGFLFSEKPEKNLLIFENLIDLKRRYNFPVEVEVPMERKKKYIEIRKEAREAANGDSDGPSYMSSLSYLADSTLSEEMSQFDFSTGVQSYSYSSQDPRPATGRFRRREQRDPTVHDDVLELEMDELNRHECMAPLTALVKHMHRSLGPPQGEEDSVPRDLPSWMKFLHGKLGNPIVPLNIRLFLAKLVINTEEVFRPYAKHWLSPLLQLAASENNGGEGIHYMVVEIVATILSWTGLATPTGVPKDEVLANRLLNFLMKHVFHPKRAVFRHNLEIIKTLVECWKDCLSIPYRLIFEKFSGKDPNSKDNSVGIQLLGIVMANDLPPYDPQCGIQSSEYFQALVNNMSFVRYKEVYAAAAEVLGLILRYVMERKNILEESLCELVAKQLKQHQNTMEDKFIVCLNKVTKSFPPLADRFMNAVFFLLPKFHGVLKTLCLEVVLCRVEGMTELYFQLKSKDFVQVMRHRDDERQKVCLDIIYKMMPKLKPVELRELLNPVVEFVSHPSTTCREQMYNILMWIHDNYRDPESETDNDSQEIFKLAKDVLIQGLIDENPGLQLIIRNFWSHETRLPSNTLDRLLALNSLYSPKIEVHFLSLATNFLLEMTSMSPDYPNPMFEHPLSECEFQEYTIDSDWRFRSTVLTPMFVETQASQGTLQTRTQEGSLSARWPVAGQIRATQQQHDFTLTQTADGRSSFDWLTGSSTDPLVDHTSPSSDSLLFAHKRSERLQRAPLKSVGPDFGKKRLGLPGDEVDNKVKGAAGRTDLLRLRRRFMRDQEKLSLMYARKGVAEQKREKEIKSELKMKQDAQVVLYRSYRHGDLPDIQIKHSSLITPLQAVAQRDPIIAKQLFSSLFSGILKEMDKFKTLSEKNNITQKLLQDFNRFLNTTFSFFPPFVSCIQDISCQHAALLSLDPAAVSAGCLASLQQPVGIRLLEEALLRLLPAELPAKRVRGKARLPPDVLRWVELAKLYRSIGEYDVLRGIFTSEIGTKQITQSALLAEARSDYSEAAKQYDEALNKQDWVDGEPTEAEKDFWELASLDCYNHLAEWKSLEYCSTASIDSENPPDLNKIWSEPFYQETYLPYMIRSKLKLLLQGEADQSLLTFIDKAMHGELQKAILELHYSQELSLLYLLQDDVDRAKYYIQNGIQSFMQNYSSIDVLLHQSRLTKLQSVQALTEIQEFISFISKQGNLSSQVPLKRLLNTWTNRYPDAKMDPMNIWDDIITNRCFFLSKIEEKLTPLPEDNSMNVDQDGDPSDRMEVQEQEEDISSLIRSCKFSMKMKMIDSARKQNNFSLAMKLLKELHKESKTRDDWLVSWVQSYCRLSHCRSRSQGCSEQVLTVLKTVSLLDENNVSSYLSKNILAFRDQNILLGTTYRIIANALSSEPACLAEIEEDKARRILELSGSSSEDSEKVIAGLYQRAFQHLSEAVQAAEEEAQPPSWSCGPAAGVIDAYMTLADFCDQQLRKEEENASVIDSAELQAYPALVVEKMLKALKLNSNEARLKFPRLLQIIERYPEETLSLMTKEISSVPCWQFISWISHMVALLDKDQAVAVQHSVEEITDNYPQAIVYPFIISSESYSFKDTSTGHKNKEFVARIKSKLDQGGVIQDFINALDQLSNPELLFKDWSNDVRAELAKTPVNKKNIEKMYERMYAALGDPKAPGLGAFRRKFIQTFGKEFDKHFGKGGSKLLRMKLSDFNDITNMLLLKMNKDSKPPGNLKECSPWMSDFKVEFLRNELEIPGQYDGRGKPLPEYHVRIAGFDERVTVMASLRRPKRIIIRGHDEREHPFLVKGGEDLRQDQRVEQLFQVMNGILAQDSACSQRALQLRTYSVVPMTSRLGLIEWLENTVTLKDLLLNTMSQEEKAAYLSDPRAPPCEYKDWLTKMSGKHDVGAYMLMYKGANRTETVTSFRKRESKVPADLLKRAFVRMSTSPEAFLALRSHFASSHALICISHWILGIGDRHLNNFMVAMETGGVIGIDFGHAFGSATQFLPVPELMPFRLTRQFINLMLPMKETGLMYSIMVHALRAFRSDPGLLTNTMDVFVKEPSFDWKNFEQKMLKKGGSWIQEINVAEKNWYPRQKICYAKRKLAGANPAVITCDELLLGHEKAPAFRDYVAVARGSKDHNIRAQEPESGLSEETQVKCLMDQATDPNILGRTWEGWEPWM"}}, "note": "Like-named read-outs stand apart in the source and are kept apart here."}
{"smiles": "CNC(=O)c1ccc2c(c1)C(=O)c1ccc(Nc3ccc(F)c(NC(=O)C4CC4)c3)cc1CC2", "note": "[Compound 2015]", "values": [{"measurement": "remaining activity at 0.2 µM", "setting": "340 wild-type kinases [1]; 0.2 µM 2015, read-out: SAK residual activity", "value": 103, "unit": "%"}, {"measurement": "remaining activity at 1 µM", "setting": "340 wild-type kinases [1]; 1 µM 2015, read-out: SAK residual activity", "value": 104, "unit": "%"}, {"measurement": "remaining activity at 0.2 µM", "setting": "340 wild-type kinases [1]; SAK, 0.2 µM, read-out: residual activity", "value": 103, "unit": "%"}, {"measurement": "remaining activity at 1 µM", "setting": "340 wild-type kinases [1]; SAK, 1 µM, read-out: residual activity", "value": 104, "unit": "%"}, {"measurement": "remaining activity at 0.2 µM", "setting": "340 wild-type kinases [2]; 0.2 µM 2015, read-out: AXL residual activity", "value": 106, "unit": "%"}, {"measurement": "remaining activity at 1 µM", "setting": "340 wild-type kinases [2]; 1 µM 2015, read-out: AXL residual activity", "value": 92.6, "unit": "%"}, {"measurement": "remaining activity at 0.2 µM", "setting": "340 wild-type kinases [2]; AXL, 0.2 µM, read-out: residual activity", "value": 106, "unit": "%"}, {"measurement": "remaining activity at 1 µM", "setting": "340 wild-type kinases [2]; AXL, 1 µM, read-out: residual activity", "value": 92.6, "unit": "%"}, {"measurement": "remaining activity at 0.2 µM", "setting": "340 wild-type kinases [3]; 0.2 µM 2015, read-out: CK1delta residual activity", "value": 117, "unit": "%"}, {"measurement": "remaining activity at 1 µM", "setting": "340 wild-type kinases [3]; 1 µM 2015, read-out: CK1delta residual activity", "value": 111, "unit": "%"}, {"measurement": "remaining activity at 0.2 µM", "setting": "340 wild-type kinases [3]; CK1delta, 0.2 µM, read-out: residual activity", "value": 117, "unit": "%"}, {"measurement": "remaining activity at 1 µM", "setting": "340 wild-type kinases [3]; CK1delta, 1 µM, read-out: residual activity", "value": 111, "unit": "%"}, {"measurement": "remaining activity at 0.2 µM", "setting": "340 wild-type kinases [4]; 0.2 µM 2015, read-out: RIPK2 residual activity", "value": 73.7, "unit": "%"}, {"measurement": "remaining activity at 1 µM", "setting": "340 wild-type kinases [4]; 1 µM 2015, read-out: RIPK2 residual activity", "value": 120, "unit": "%"}, {"measurement": "remaining activity at 0.2 µM", "setting": "340 wild-type kinases [4]; RIPK2, 0.2 µM, read-out: residual activity", "value": 73.7, "unit": "%"}, {"measurement": "remaining activity at 1 µM", "setting": "340 wild-type kinases [4]; RIPK2, 1 µM, read-out: residual activity", "value": 120, "unit": "%"}, {"measurement": "remaining activity at 0.2 µM", "setting": "340 wild-type kinases [5]; 0.2 µM 2015, read-out: DNAPK residual activity", "value": 111, "unit": "%"}, {"measurement": "remaining activity at 1 µM", "setting": "340 wild-type kinases [5]; 1 µM 2015, read-out: DNAPK residual activity", "value": 99.6, "unit": "%"}, {"measurement": "remaining activity at 0.2 µM", "setting": "340 wild-type kinases [5]; DNAPK, 0.2 µM, read-out: residual activity", "value": 111, "unit": "%"}, {"measurement": "remaining activity at 1 µM", "setting": "340 wild-type kinases [5]; DNAPK, 1 µM, read-out: residual activity", "value": 99.6, "unit": "%"}]}
